The values below come from patent US20060167094A1, “Satiety agent” (priority 2005, published 2006).

Data set [1] deals with plasma GLP-1. The data set can be described thus: Plasma GLP-1 concentrations by radioimmunoassay. It is filed as in vivo, human. As for the experimental part: (§1) Once the catheter was positioned correctly, fasting motility was monitored until the occurrence of phase III of the interdigestive migrating motor complex (MMC). Immediately after the cessation of phase III activity [at time t=−15 min], a baseline venous blood sample was taken, and a visual analog scale questionnaire (VAS) (see Measurements), assessing appetite-related sensations, was administered. At t=0 min (i.e., during phase I of the MMC), the duodenal infusion of 1) C12, 2) C10, or 3) control solution was commenced and continued for 90 min. APD pressures were monitored throughout the infusion period; blood samples were taken, and the VAS administered every 15 min from t=0 min until t=90 min. At t=90 min, the infusion was terminated, and the subject was immediately extubated and offered a cold buffet-style meal, the composition of which is provided in Table 1. The amount of food offered was in excess of what the subject was expected to consume. The subject was given 30 min (i.e., t=90 min to t=120 min) to consume the meal and instructed to eat until comfortably full. After ingestion of the meal, the subject was monitored for a further 30 min, a further VAS was completed, and blood samples were taken at t=120 and 150 min. The intravenous cannula was then removed, and the subject was allowed to leave the laboratory.
(§2) Venous blood samples (10 ml) were collected in ice-chilled EDTA-treated tubes containing 400 kIU aprotinin (Trasylol, Bayer Australia) per millilitre of blood. Plasma was separated by centrifugation (3,200 rpm, 15 min, 4° C.) within 30 min of collection and stored at −70° C. until assayed.
Plasma GLP-1 concentrations (in pmol/l) were measured by radioimmunoassay using an adaptation of a previously published method (4) Antibody, supplied by Prof. […] It is likely that this antibody also reacts with the degraded form of GLP-1(9-36) amide. Intra-assay CV was 17% and interassay CV was 18%, with a sensitivity of 1.5 pmol/l.

Data set [2] has as its system plasma CCK. The data set can be described thus: Plasma CCK concentrations by radioimmunoassay. In kind it is in vivo, human. As for the experimental part:
as §1, §2
Plasma CCK concentrations (in pmol/l) were determined after ethanol extraction using a previously described radioimmunoassay (3). A commercially available antibody (C258, Lot 105H4852, Sigma Chemical) raised in rabbits against the synthetic sulfated CCK-8 was employed. […] The intra-assay coefficient of variation (CV) was 9% and the interassay CV was 27%, with a sensitivity of 2.5 pmol/l. The sensitivity of the assay relates to its reliable detection limit.

The conditions of data set [3]: isomolar concentrations; cited from earlier work.
For data set [4], the system named is CCK secretion. The following applies: humans, cited from earlier work.
A short description of data set [5]: Antropyloroduodenal (APD) pressures by manometry during intraduodenal infusion. In kind it is in vivo, human.
Description: Subjects attended the laboratory at 0830 after fasting from 2200 the previous night from both solids and liquids. They were intubated with a 17-channel manometric catheter (Dentsleeve; Adelaide, South Australia, Australia) that was inserted through an anesthetized nostril and allowed to pass through the stomach and into the duodenum by peristalsis. The manometric catheter, which consisted of 16 sideholes spaced at 1.5-cm intervals, measures pressures in the antrum, pylorus, and duodenum. Six side holes (channels 1-6) were positioned in the antrum, a 4.5-cm sleeve sensor (channel 7), with two channels present on the back of the sleeve (channels 8 and 9), designed to measure pressure waves occurring over the entire pyloric region, were positioned across the pylorus, and seven channels were positioned in the duodenum (channels 10-16). An additional channel, used for intraduodenal infusions, was positioned 11.75 cm distal to the end of the sleeve sensor. The correct positioning of the catheter, so the sleeve sensor straddled the pylorus, was maintained by continuous measurement of the transmucosal potential difference (TMPD) between the most distal antral channel (channel 6; approximately −40 mV) and the most proximal duodenal channel (channel 10; ˜0 mV). For this purpose, an intravenous cannula filled with sterile saline was placed subcutaneously in the left forearm and used as a reference electrode. All manometric channels were perfused with degassed, distilled water except for the two TMPD channels, which were perfused with degassed 0.9% saline at 0.15 ml/min. An intravenous cannula was also placed into a right forearm vein for blood sampling to measure plasma CCK and GLP-1 concentrations.
as §1
APD pressures. Manometric pressures were digitized, recorded on a computer-based system (PowerMac 7100/75, Apple Computers; Cupertino, Calif.) running commercially available software (HAD, Associate Prof. G S Hebbard, Melbourne, Australia) written in LabView 3.1.1 (National Instruments), and stored for subsequent analysis. APD pressures were analysed for 1) number and amplitude of isolated pyloric pressure waves (IPPWs) and pressure waves (PWs) in the antrum and duodenum and 2) number and length of PW sequences (PWSs) in the duodenum using custom-written software (Gastrointestinal Motility Unit; Utrecht, The Netherlands) modified to our requirements. […]

Data set [6] is described as follows: Appetite perceptions (VAS scores) during and after 90 min intraduodenal infusion. In kind it is in vivo, human. As for the experimental part:
(§3) Each subject was studied on three occasions, separated by 3-10 days, to evaluate, in a double-blind, randomized fashion, the effects of intraduodenal infusions of 1) C12, 2) C10, or 3) control solution for 90 min on appetite perceptions, energy intake, APD pressures, and plasma CCK and GLP-1 concentrations.
as §1
Appetite sensations and energy intake. Subjective sensations of appetite, including hunger, fullness, desire to eat, prospective consumption (“how much food do you think you could eat if you were given a meal now?”), were assessed using validated VASs (Sensations of nausea and bloating were also assessed. Each VAS evaluated a sensation on a 100-mm horizontal line, where 0 represented “sensation is not felt at all” and 100 represented “sensation is felt the greatest.” Subjects were asked to place a vertical stroke on the 100-mm line in relation to what they were feeling at that particular point in time.
Baseline (“0”) values were calculated as the mean of values obtained at t=−15 and 0 min for VAS scores and plasma hormone concentrations and between t=−15 to 0 min for basal pyloric pressures, number, and amplitude of IPPWs, antral and duodenal PWs, and total number of duodenal PWSs. Basal pyloric pressures and the number and amplitude of IPPWs were expressed as means over 15-min segments during the 90-min infusion period. Numbers and amplitudes of antral and duodenal PWs were expressed as total number and mean values, respectively, for the 90-min infusion period. Duodenal PWSs were expressed as the total number of waves travelling over two, three, four, five, six, and seven channels during the 90-min infusion period. All data, except for plasma CCK and GLP-1 concentrations, were expressed as changes from baseline.
VAS scores, basal pyloric pressures, number and amplitude of IPPWs, and plasma hormone concentrations were analyzed by repeated-measures mixed model analysis of covariance (ANCOVA), with baseline as the covariate and time (0-90 min, at 15-min intervals) and treatment as within-subject factors. One-way ANOVA was used to assess the effect of treatment on energy intake, time taken to complete eating, total numbers and mean amplitudes of antral and duodenal PWs, and total number of duodenal PWSs. A logarithmic transformation was applied to nausea scores, antral amplitudes, and duodenal PWSs travelling 7.5 and 9 cm to better address the underlying assumptions of the models used (as these variables lacked normal distribution). If significance or near significance ([…]) was found, post hoc comparisons of least-squares means using Student's t-tests were performed. […]

A short description of data set [7]: Energy intake from the buffet meal after intraduodenal infusion. In kind it is in vivo, human. As for the experimental part: as §3, §1
Energy intake from the buffet meal [energy consumption (in kJ) and macronutrient distribution (in % and g energy)] was analyzed using commercially available software (Food works 3.0, Xyris Software; Highgate Hill, Queensland, Australia). The time taken to finish the meal (in min) was also evaluated.

Setting [8] is: 90 min infusion, compared with control.
[9] abbreviates: during 90 min intraduodenal infusion, 0.375 kcal/min, compared with control.
The mark [10] stands for this setting: buffet meal, compared with control.

Read-outs that look alike come from different tables or passages of the source.

Take `CCCCCCCCCC(=O)O` [C10, decanoic (C10:0) acid, reference compound]: in data set [1] (during infusion, C12 effect from 30 to 90 min), the “plasma GLP-1 concentrations compared with control” value is “no difference between C10 and control”. In addition, in data set [1] (t=120 and 150 min, compared with control), the “plasma GLP-1 concentrations after meal ingestion” value is “no difference between C10 and control”. Further, the “plasma CCK concentrations” value in data set [2] (during 90 min infusion, compared with control) is reported as “increased plasma CCK concentrations”. Besides, in data set [2] (from start of infusion), the “time of peak plasma CCK” value worked out at 15 min. Further, the “cytotoxicity relative to C12” value in data set [3] is reported as “similar”. For the same compound, in data set [4] (gastric infusion), the “stimulation of CCK secretion” value is recorded as “neither C11 nor C10”. For the same compound, in data set [5] (setting [8]), the “basal pyloric pressure (tone)” value is “significant difference between C10 and control”; the “number of antral PWs” value was “no difference between C10 and control”; the “number of duodenal PWs” value was “increased the number of duodenal PWs compared with control”. In data set [5] (C12: 0-15, 15-30 and 30-45 min, C10: 0-15 min), the “number of IPPWs compared with control” value was “increased the number of IPPWs compared with control between 0 and 15 min”. Besides, in data set [5] (compared with control), the “number of duodenal PWSs travelling over six channels (7.5 to <9 cm)” value is reported as “decreased the number of waves that travelled over six channels compared with control”; the “number of duodenal PWSs travelling over three channels (3 to <4.5 cm)” value was “no difference between C12 or C10 and control”; the “number of duodenal PWSs travelling over two channels (1.5 to <3 cm)” value is listed as “increased the number of waves compared with control”; the “number of waves that travelled over nine channels” value was “no difference between C10 and control”. For the same compound, the “amplitude of IPPWs compared with control” value in data set [5] (throughout the infusion period) was “no significant differences between C10 and control”. The “fullness (VAS) after meal ingestion” value in data set [6] (at 120 and 150 min, after the buffet meal) was “no difference between C10 and control”. Moreover, the “scores for bloating (VAS)” value in data set [6] (during 90 min intraduodenal infusion, 0.375 kcal/min) is recorded as “increased scores for bloating compared with control”. Moreover, in data set [6] (setting [9]), the “nausea scores (VAS)” value was “no difference in nausea scores between C10 and control”; the “scores for hunger (VAS)” value was “no differences were found between C10 and control”; the “scores for prospective consumption (VAS)” value was “no differences were found between C10 and control”. Besides, in data set [6] (during 90 min intraduodenal infusion, 0.375 kcal/min, healthy males, compared with control), the “scores for desire to eat (VAS)” value was “no differences were found between C10 and control”. Further, in data set [7] (after 90 min intraduodenal infusion 0.375 kcal/min, compared with control), the “energy intake at buffet meal” value was “no difference between C10 and control infusion”. In data set [7] (setting [10]), the “amount of energy (in g) ingested from carbohydrate” value was “no difference between C10 and control”; the “amount of energy (in g) ingested from fat” value is “no difference between C10 and control”; the “amount of energy (in g) ingested from protein” value was “no difference between C10 and control”. The “time at which eating from the buffet meal was completed” value in data set [7] (mean±SE, not statistically significant) came to 20.6 ± 2.6 min.
With `CCCCCCCCCCC(=O)O` [C11], the “stimulation of CCK secretion” value in data set [4] (gastric infusion) is “neither C11 nor C10”.
For the compound `CCCCCCCCCCCCCCCCCC(=O)O` [C18], the “stimulation of CCK secretion” value in data set [4] (duodenal infusion) is “reported to stimulate CCK secretion”.
